Assay [1] addresses T1, mutant form of the human GPR119 receptor (Homo sapiens, UniProt Q8TDV5, S329A/T327A).
T1 construct: T327 & S329 changed to alanines; expressed in transfected cells
T1 sequence (Q8TDV5 2-335 T327A/S329A): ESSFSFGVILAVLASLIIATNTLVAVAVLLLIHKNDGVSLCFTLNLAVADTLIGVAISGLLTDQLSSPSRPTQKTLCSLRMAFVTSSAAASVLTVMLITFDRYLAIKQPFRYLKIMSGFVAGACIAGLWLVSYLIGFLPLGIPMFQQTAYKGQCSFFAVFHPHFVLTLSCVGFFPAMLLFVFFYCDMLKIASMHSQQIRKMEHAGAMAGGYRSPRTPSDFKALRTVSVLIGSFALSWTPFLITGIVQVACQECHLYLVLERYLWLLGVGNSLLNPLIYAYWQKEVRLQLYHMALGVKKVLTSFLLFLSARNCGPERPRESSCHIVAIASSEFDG
In words: LANCE cAMP-384 assay in HEK293 cells stably expressing a mutant form of the human GPR119 receptor. It is filed as cell-based. To be noted: HEK293 cells stably expressing mutant human GPR119, LANCE cAMP-384 Kit, 20 min at 37° C. Here is the method:
Quantitative detection of cAMP accumulation from cells expressing human GPR119 receptor is achieved using Perkin Elmer's LANCE cAMP-384 Kit (Cat#AD0264) according to the manufacturer's protocol. Briefly, HEK293 cells stably expressing a mutant form of the human GPR119 receptor as assay tool (Methionine 1 replaced with the amino acid sequence […], and T327 & S329 changed to alanines; SEQ ID No. 1) are grown to 50-70% confluency in cell culture media (DMEM, 10% heat inactivated Fetal Bovine Serum, 50 I.U./mL penicillin, 50 μg/mL streptomycin, 10 mM HEPES, 20 μg/mL G418 Sulfate). On the day of the assay, GPR119 stable HEK293 cells are lifted from the tissue culture plate and 1000 cells/well are incubated along with various concentrations of test compounds for 20 min at 37° C. Detection Buffer (50 mM HEPES, 10 mM calcium chloride, 0.35% Triton X-100, 1 mg/mL BSA) containing cAMP-specific antibody is then added to all wells and allowed to equilibrate in the dark for 10 minutes at room temperature. Upon equilibration, Detection Buffer containing europium-labeled cAMP tracer complex is added to all wells and allowed to react for 1 hour at room temperature. After 1 hour, bound europium-labeled cAMP tracer is measured using a Perkin Elmer Envision plate reader. The quantity of cAMP generated in each well is derived from a standard curve. EC50 is determined using nonlinear regression analysis of the cAMP values over a range of agonist concentration (12 points spanning the range from 30 μM to 100 pM).

A further assay concerns the target T2, human GPR119 (Homo sapiens, UniProt Q8TDV5).
T2 construct: expression vector for human GPR119 cDNA (Acc. No. NP_848566); expressed in transfected cells
T2 sequence (Q8TDV5 1-335): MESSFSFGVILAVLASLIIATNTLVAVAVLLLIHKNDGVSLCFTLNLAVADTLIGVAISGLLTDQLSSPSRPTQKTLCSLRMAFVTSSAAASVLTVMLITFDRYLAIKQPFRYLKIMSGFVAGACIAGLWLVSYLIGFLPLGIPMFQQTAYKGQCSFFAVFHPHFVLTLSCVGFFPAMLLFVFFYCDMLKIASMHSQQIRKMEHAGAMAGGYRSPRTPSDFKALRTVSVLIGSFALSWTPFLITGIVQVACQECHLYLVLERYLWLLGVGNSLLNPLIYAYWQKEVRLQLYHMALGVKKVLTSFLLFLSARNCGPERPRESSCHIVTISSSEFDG
The experiment in a line: AlphaScreen cAMP assay in MIN6 cells stably transfected with human GPR119. It is filed as cell-based. To be noted: Min-6/hGPR119 cells, AlphaScreen cAMP Assay Kit, 45 minutes incubation at room temperature. In outline:
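MIN6 cells stably expressing human GPR119, seeded 24 h, then stimulated 45 min at room temperature with compound in pH 7.4 Hepes-buffered salt solution with 0.5 mM IBMX, 0.1% BSA, 1% DMSO. Intracellular cAMP measured by AlphaScreen.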
A general note: In Alpha technology, singlet oxygen from a donor bead excites a nearby acceptor bead.

The term EC50 denotes the midpoint of the concentration-response curve. Molecule `Cc1nnnn1-c1ccc(C(=O)N(C2CC2)[C@@H]2CCN(c3ccc(C(F)(F)F)cn3)C[C@@H]2F)cc1` (single isomer, unassigned) [Example 120] registered an EC50 in assay [1] of 745 nM.

In turn, `O=C(c1ccc(-n2cnnn2)c(F)c1)N(C1CC1)[C@@H]1CCN(c2ccc(C(F)(F)F)cn2)C[C@@H]1F` (single isomer, unassigned) [Example 121] gave an EC50 in assay [1] of 134 nM.

For the molecule `O=C(c1ccc(-c2cnco2)cc1)N(C1CC1)C1CCN(c2cnccn2)CC1` [Example 85, N-Cyclopropyl-4-oxazol-5-yl-N-(1-pyrazin-2-yl-piperidin-4-yl)-benzamide], the EC50 at human GPR119 was 449 nM.

On human GPR119, `N#Cc1cnc(N2CCC(N(C(=O)c3ccc(-c4cnco4)cc3)C3CC3)CC2)cn1` [Example 86, N-[1-(5-Cyano-pyrazin-2-yl)-piperidin-4-yl]-N-cyclopropyl-4-oxazol-5-yl-benzamide] had an EC50 of 139 nM.

`O=C(c1ccc(-c2cnco2)cc1)N(C1CC1)C1CCN(c2nnc(C(F)(F)F)s2)CC1` [Example 87, N-Cyclopropyl-4-oxazol-5-yl-N-[1-(5-trifluoromethyl-[1,3,4]thiadiazol-2-yl)-piperidin-4-yl]-benzamide] registered an EC50 on human GPR119 of 25 nM.

As to `O=C(c1ccc(-c2cnco2)cc1)N(C1CC1)C1CCN(c2ncc(C3CC3)cn2)CC1` [Example 88, N-Cyclopropyl-N-[1-(5-cyclopropyl-pyrimidin-2-yl)-piperidin-4-yl]-4-oxazol-5-yl-benzamide], the response on human GPR119 was half-maximal at 71 nM (EC50).

With `Cc1cnc(N2CCC(N(C(=O)c3ccc(-c4cnco4)cc3)C3CC3)CC2)nc1` [Example 89, N-Cyclopropyl-N-[1-(5-methyl-pyrimidin-2-yl)-piperidin-4-yl]-4-oxazol-5-yl-benzamide], the EC50 on human GPR119 came out at 34 nM.

On to `Cc1nccn1-c1ccc(C(=O)N(C2CC2)C2CCN(c3ncc(C(F)(F)F)cc3F)CC2)cc1` [Example 90, N-Cyclopropyl-N-(3′-fluoro-5′-trifluoromethyl-3,4,5,6-tetrahydro-2H-[1,2′]bipyridinyl-4-yl)-4-(2-methyl-imidazol-1-yl)-benzamide], for which the half-maximal effective concentration (EC50) in assay [1] is 149 nM.

`O=C(c1ccc(-n2cncn2)cc1)N(C1CC1)C1CCN(c2ncc(C(F)(F)F)cc2F)CC1` [Example 91, N-Cyclopropyl-N-(3′-fluoro-5′-trifluoromethyl-3,4,5,6-tetrahydro-2H-[1,2′]bipyridinyl-4-yl)-4-[1,2,4]triazol-1-yl-benzamide] gave an EC50 in assay [1] of 48 nM.

With `Cc1ncnn1-c1ccc(C(=O)N(C2CC2)C2CCN(c3ncc(C(F)(F)F)cc3F)CC2)cc1` [Example 92, N-Cyclopropyl-N-(3′-fluoro-5′-trifluoromethyl-3,4,5,6-tetrahydro-2H-[1,2′]bipyridinyl-4-yl)-4-(5-methyl-[1,2,4]triazol-1-yl)-benzamide], in assay [1], the EC50 worked out at 265 nM.

In turn, `Cc1nccn1-c1ccc(C(=O)N(C2CC2)C2CCN(c3ncc(C(F)(F)F)cc3F)CC2)cc1F` [Example 93, N-Cyclopropyl-3-fluoro-N-(3′-fluoro-5′-trifluoromethyl-3,4,5,6-tetrahydro-2H-[1,2′]bipyridinyl-4-yl)-4-(2-methyl-imidazol-1-yl)-benzamide] displayed an EC50 in assay [1] of 168 nM.

In turn, `O=C(c1ccc(-n2cncn2)c(F)c1)N(C1CC1)C1CCN(c2ncc(C(F)(F)F)cc2F)CC1` [Example 94, N-Cyclopropyl-3-fluoro-N-(3′-fluoro-5′-trifluoromethyl-3,4,5,6-tetrahydro-2H-[1,2′]bipyridinyl-4-yl)-4-[1,2,4]triazol-1-yl-benzamide] registered an EC50 in assay [1] of 10 nM.

Consider `Cc1ncnn1-c1ccc(C(=O)N(C2CC2)C2CCN(c3ncc(C(F)(F)F)cc3F)CC2)cc1F` [Example 95, N-Cyclopropyl-3-fluoro-N-(3′-fluoro-5′-trifluoromethyl-3,4,5,6-tetrahydro-2H-[1,2′]bipyridinyl-4-yl)-4-(5-methyl-[1,2,4]triazol-1-yl)-benzamide], for which the response in assay [1] was half-maximal at 595 nM (EC50).

The molecule `Cc1nccn1-c1ccc(C(=O)N(C2CC2)C2CCN(c3nc(C(C)C)no3)CC2)cc1` [Example 96, N-Cyclopropyl-N-[1-(3-isopropyl-[1,2,4]oxadiazol-5-yl)-piperidin-4-yl]-4-(2-methyl-imidazol-1-yl)-benzamide] gave an EC50 in assay [1] of 1630 nM.

In the case of `CC(C)c1noc(N2CCC(N(C(=O)c3ccc(-n4cncn4)cc3)C3CC3)CC2)n1` [Example 97, N-Cyclopropyl-N-[1-(3-isopropyl-[1,2,4]oxadiazol-5-yl)-piperidin-4-yl]-4-[1,2,4]triazol-1-yl-benzamide], the EC50 in assay [1] was 170 nM.

For `Cc1nccn1-c1ccc(C(=O)N(C2CC2)C2CCN(c3nc(C(C)C)no3)CC2)cc1F` [Example 99, N-Cyclopropyl-3-fluoro-N-[1-(3-isopropyl-[1,2,4]oxadiazol-5-yl)-piperidin-4-yl]-4-(2-methyl-imidazol-1-yl)-benzamide], the EC50 in assay [1] stood at 1740 nM.

`CC(C)c1noc(N2CCC(N(C(=O)c3ccc(-n4cncn4)c(F)c3)C3CC3)CC2)n1` [Example 100, N-Cyclopropyl-3-fluoro-N-[1-(3-isopropyl-[1,2,4]oxadiazol-5-yl)-piperidin-4-yl]-4-[1,2,4]triazol-1-yl-benzamide]: in assay [1], a half-maximal effect (EC50) was put at 45 nM.

In assay [1], `Cc1ncnn1-c1ccc(C(=O)N(C2CC2)C2CCN(c3nc(C(C)C)no3)CC2)cc1F` [Example 101, N-Cyclopropyl-3-fluoro-N-[1-(3-isopropyl-[1,2,4]oxadiazol-5-yl)-piperidin-4-yl]-4-(5-methyl-[1,2,4]triazol-1-yl)-benzamide] registered an EC50 of 1130 nM.

Regarding `CCc1cnc(N2CCC(N(C(=O)c3ccc(-n4ccnc4C)cc3)C3CC3)CC2)nc1` [Example 102, N-Cyclopropyl-N-[1-(5-ethyl-pyrimidin-2-yl)-piperidin-4-yl]-4-(2-methyl-imidazol-1-yl)-benzamide], a half-maximal effect in assay [1] (EC50) was put at 1090 nM.

The molecule `CCc1cnc(N2CCC(N(C(=O)c3ccc(-n4ncnc4C)cc3)C3CC3)CC2)nc1` [Example 103, N-Cyclopropyl-N-[1-(5-ethyl-pyrimidin-2-yl)-piperidin-4-yl]-4-(5-methyl-[1,2,4]triazol-1-yl)-benzamide] yielded an EC50 in assay [1] of 1590 nM.

Turning to `CCc1cnc(N2CCC(N(C(=O)c3ccc(-n4ccnc4C)c(F)c3)C3CC3)CC2)nc1` [Example 104, N-Cyclopropyl-N-[1-(5-ethyl-pyrimidin-2-yl)-piperidin-4-yl]-3-fluoro-4-(2-methyl-imidazol-1-yl)-benzamide], a half-maximal effect in assay [1] (EC50) was put at 1950 nM.

Turning to `CCc1cnc(N2CCC(N(C(=O)c3ccc(-n4cncn4)c(F)c3)C3CC3)CC2)nc1` [Example 105, N-Cyclopropyl-N-[1-(5-ethyl-pyrimidin-2-yl)-piperidin-4-yl]-3-fluoro-4-[1,2,4]triazol-1-yl-benzamide], the EC50 in assay [1] came to 53 nM.

Molecule `CCc1cnc(N2CCC(N(C(=O)c3ccc(-n4ncnc4C)c(F)c3)C3CC3)CC2)nc1` [Example 106, N-Cyclopropyl-N-[1-(5-ethyl-pyrimidin-2-yl)-piperidin-4-yl]-3-fluoro-4-(5-methyl-[1,2,4]triazol-1-yl)-benzamide] showed an EC50 in assay [1] of 885 nM.

For `Cc1nccn1-c1ccc(C(=O)N(C2CC2)C2CCN(c3ncc(Cl)cn3)CC2)cc1` [Example 107, N-[1-(5-Chloro-pyrimidin-2-yl)-piperidin-4-yl]-N-cyclopropyl-4-(2-methyl-imidazol-1-yl)-benzamide], the EC50 in assay [1] came out at 549 nM.

In assay [1], `O=C(c1ccc(-n2cncn2)cc1)N(C1CC1)C1CCN(c2ncc(Cl)cn2)CC1` [Example 108, N-[1-(5-Chloro-pyrimidin-2-yl)-piperidin-4-yl]-N-cyclopropyl-4-[1,2,4]triazol-1-yl-benzamide] registered an EC50 of 552 nM.

The record behind these values is US8822471B2, “Compounds, pharmaceutical compositions and uses thereof” (Boehringer Ingelheim International GmbH, priority 2011, dated 2014).
